In patent US20170319562A1, “Compositions and Methods for Extended Therapy with Aminopyridines” (Acorda Therapeutics, Inc., priority 2009, published 2017):

Assays:
[1] = Pharmacokinetics after i.v. and p.o. 4-aminopyridine (2 mg/kg) in rats; conditions: single p.o. 2 mg/kg
From the text: Distribution: The volume of distribution at steady state (Vdss) in rats has been reported to approximate total body volume (not adjusted for bioavailability).

[2] = Bioavailability and pharmacokinetics in healthy volunteers; conditions: 10 mg oral solution
[3] = test system: patients with multiple sclerosis; assay: MS-F202EXT open-label extension study; format: in vivo, human; conditions: for patients classified as Extension Timed Walk Responders: cut-off Jul. 31, 2008
Method: Data were presented by study pair (parent and extension).
In the MS-F202EXT study, which started recruiting patients several months after the completion of the parent study, patients were required to undergo a screening visit prior to dispensing of open-label 4-aminopyridine-SR. The study began with the potential to titrate the dose upward to a maximum of 20 mg b.i.d. with titration visits at weekly intervals. A number of protocol amendments decreased the maximum dose to 15 and then to 10 mg b.i.d. and changed the planned visit intervals, but in the current amended protocol, both the dose (10 mg b.i.d.) and the interval between visits (26 weeks) has been made consistent with MS-F203EXT.
This Example considers efficacy data collected from the three ongoing, open label extension studies (MS-F202EXT, MS-F203EXT, MS-F204EXT). The primary focus was the Timed 25-Foot Walk, assessed in a manner consistent with its evaluation in the parent double-blind studies. This included the determination of response to treatment using a criterion equivalent to the Timed Walk Response criterion used in the parent studies. […] The clinical meaningfulness of this criterion was evaluated in terms of the Subject and Clinician Global Impression scores recorded during the extension studies.
In the extension studies, a “Timed Walk Extension Responder” was defined as a patient who achieved a faster walking speed on the T25FW for the majority of on-drug treatment visits during the first year of the study (Visits 1-4 for MS-F203EXT and MS-F204EXT) than the maximum walking speed previously measured for the patient during any off-drug visits in either the parent study or in the extension study.

[4] = test system: patients with multiple sclerosis; assay: MS-F203 Phase 3 double-blind placebo-controlled study; format: in vivo, human; conditions: 10 mg b.i.d.
From the text: A three stage, stepwise analysis based on this variable was used to establish a positive outcome on the primary endpoint and to establish its clinical meaningfulness with respect to overall walking ability. […] The second step was to register a significant improvement in MSWS-12 score for the Timed-Walk Responders when compared to Timed-Walk Non-Responders. The third step was to confirm maintenance of effect by testing whether those patients who responded to 4-aminopyridine-SR on the T25FW would still register a significant improvement in walking speed relative to placebo-treated patients at the last observed double-blind visit (i.e., the change from baseline in walking speed at the double-blind endpoint). FIG. 47 depicts walking speed improvements found in the MS-F203 study: In FIG. 47, the two graphs show the average change in walking speed from baseline at each of the four visits over the 3 months of double blind treatment. […] There was no indication of a loss of efficacy over, e.g., 12 weeks, 13 weeks, 14 weeks, 3 months of treatment in this study. The MS-F203 study established that the improvement in walking speed seen in treated Timed Walk Responders was maintained over, e.g., 12 weeks, 13 weeks, 14 weeks, 3 months of treatment. The enxtention data herein established that periods greater than those of this study were able to be effeicaious, thus as a durable and chronic therapy. […]

[5] = two formulations of IR tablets; cited from earlier work

Q: What does the source list for `Nc1ccncc1` [4-aminopyridine]?
A: Vdss lower in females than in males [1]: 13%; Cmax [2]: 42.7 ng/mL; patients classified as Extension Timed Walk Responders ([3]; all patients): 15.7%; Extension Timed Walk Response rate within year ([3]; double-blind Non-Responders, year 1): 11.1%; Extension Timed Walk Response rate within year ([3]; double-blind Non-Responders, year 2): 5.2%; Extension Timed Walk Response rate within year ([3]; double-blind Non-Responders, year 3): 6.1%; Extension Timed Walk Response rate within year ([3]; double-blind Responders, year 1): 25.6%; Extension Timed Walk Response rate within year ([3]; double-blind Responders, year 2): 23.1%; Extension Timed Walk Response rate within year ([3]; double-blind Responders, year 3): 22.2%; patients classified as Extension Timed Walk Responders ([3]; parent-study treated Timed Walk Non-Responders): 9.5%; patients classified as Extension Timed Walk Responders ([3]; parent-study treated Timed Walk Responders): 25.6%; Extension Timed Walk Response rate within year ([3]; placebo treated in parent study, year 1): 17.9%; Extension Timed Walk Response rate within year ([3]; placebo treated in parent study, year 2): 4.6%; Extension Timed Walk Response rate within year ([3]; placebo treated in parent study, year 3): 5.3%; patients classified as Extension Timed Walk Responders ([3]; placebo-treated in parent study): 14.3%; improvement in walking speed across the treatment period ([4]; Timed Walk Non-responders): approximately 7%; average increase in walking speed over the treatment period compared to baseline ([4]; Timed Walk Responders): approximately 25%; absolute bioavailability [5]: 95%
